Common to all, as to assay type: functional
The subject of test [1] is Mycobacterium tuberculosis. Put plainly: Antimicrobial activity against Mycobacterium tuberculosis harboring 83W to Stop mutation in thymidylate synthase A by agar dilution method. In general terms: Agar dilution tests growth on a series of plates holding different concentrations.
In test [2] the test system is Mycobacterium tuberculosis. Put plainly: Antimicrobial activity against Mycobacterium tuberculosis harboring 11Q to Stop mutation in thymidylate synthase A by agar dilution method.
In test [3] the test system is Mycobacterium tuberculosis. Put plainly: Antimicrobial activity against Mycobacterium tuberculosis harboring 118L to Stop mutation in thymidylate synthase A by agar dilution method.
Test [4] concerns Mycobacterium tuberculosis. Put plainly: Antimicrobial activity against Mycobacterium tuberculosis harboring 153Y to Stop mutation in thymidylate synthase A by agar dilution method.
In test [5] the test system is Mycobacterium tuberculosis. Put plainly: Antimicrobial activity against Mycobacterium tuberculosis harboring 164Y to Stop mutation in thymidylate synthase A by agar dilution method.
Test [6] has as its system Mycobacterium tuberculosis. In words: Antimicrobial activity against Mycobacterium tuberculosis harboring 251Y to Stop mutation in thymidylate synthase A by agar dilution method.
For test [7], the system named is Mycobacterium tuberculosis. In words: Antimicrobial activity against Mycobacterium tuberculosis harboring 264Stop to R mutation in thymidylate synthase A by agar dilution method.
Test [8] relates to Mycobacterium tuberculosis. In words: Antimicrobial activity against Mycobacterium tuberculosis harboring 127R to L mutation in thymidylate synthase A by agar dilution method.
Test [9] concerns Mycobacterium tuberculosis. In words: Antimicrobial activity against Mycobacterium tuberculosis harboring 143L to P mutation in thymidylate synthase A by agar dilution method.
In test [10] the test system is Mycobacterium tuberculosis. In words: Antimicrobial activity against Mycobacterium tuberculosis harboring 146C to R mutation in thymidylate synthase A by agar dilution method.
Test [11] deals with Mycobacterium tuberculosis. In words: Antimicrobial activity against Mycobacterium tuberculosis harboring 172L to P mutation in thymidylate synthase A by agar dilution method.
The test system of test [12] is Mycobacterium tuberculosis. In words: Antimicrobial activity against Mycobacterium tuberculosis harboring 182A to P mutation in thymidylate synthase A by agar dilution method.
Test [13] relates to Mycobacterium tuberculosis. Put plainly: Antimicrobial activity against Mycobacterium tuberculosis harboring 259A to P mutation in thymidylate synthase A by agar dilution method.
Test [14] deals with Mycobacterium tuberculosis. Put plainly: Antimicrobial activity against Mycobacterium tuberculosis harboring 261V to G mutation in thymidylate synthase A by agar dilution method.
The subject of test [15] is Mycobacterium tuberculosis. Put plainly: Antimicrobial activity against Mycobacterium tuberculosis harboring 15G to R mutation in thymidylate synthase A by agar dilution method.
Test [16] deals with Mycobacterium tuberculosis. In words: Antimicrobial activity against Mycobacterium tuberculosis harboring 183L to V mutation in thymidylate synthase A by agar dilution method.
Test [17] concerns Mycobacterium tuberculosis. In words: Antimicrobial activity against Mycobacterium tuberculosis harboring 191Q to R mutation in thymidylate synthase A by agar dilution method.
For test [18], the system named is Mycobacterium tuberculosis. Put plainly: Antimicrobial activity against Mycobacterium tuberculosis harboring 202T to A mutation in thymidylate synthase A by agar dilution method.

Structures are written as SMILES. In brackets after ≈: the same amount, converted by molar mass. Where only a bound is given, the exact number is not on record here.

As a reminder, the MIC is the lowest concentration that inhibits growth of the organism. Higher therefore signals weaker potency. For the compound `Nc1ccc(C(=O)O)c(O)c1` [AMINOSALICYLIC ACID], the MIC in [1], in test [2], in [3], in test [4], in test [5] and in test [6] was >128 µg/mL each time. Also, the MIC in [7], in [8], in test [9], in test [10], in [11] and in test [12] was >128 µg/mL throughout. In addition, the MIC in [13] is 64 µg/mL (≈ 418 µM); in [14] it was >128 µg/mL; in test [15], >8 µg/mL; in test [16], <64 µg/mL; in test [17] it was <64 µg/mL; in [18], <128 µg/mL.

Values taken from ChEMBL document CHEMBL1649181 (2009).
